From publication PMC6523531, “Mechanistic Studies on the Absorption-Enhancing Effects of Gemini Surfactant on the Intestinal Absorption of Poorly Absorbed Hydrophilic Drugs in Rats” (Pharmaceutics, 2019) come the findings set out here.

Assay [1] has as its system claudin-1. As to the kind of experiment: Western blotting of claudin-1 in rat small intestine after in situ treatment. It is filed as in vivo. Conditions: treatment with 0.5% (v/v) SLG-30 for 1 h, vs control. The protocol: Western blotting was performed by the method described previously with slight modifications. Three male Wistar rats weighing 250 g were prepared to perform an in situ closed-loop method on the small intestine, as mentioned above. A control study, a treatment study, and a pretreatment study were conducted on the first, second, and third rat, respectively. For the control study, only PBS solution (pH 7.4) was administered into the small intestine, and then, the rat was sacrificed, while for the treatment study, SLG-30 was administered for 1 h, and then, the rat was sacrificed without washing the SLG-30 out. The pretreatment study was performed by administrating SLG-30 for 1 h then washing it out with PBS solution (pH 7.4), followed by sacrificing the rat after 4 h. The small intestine (60 cm) of three rats was taken and treated, as mentioned above, for extracting the BBMVs. […]
The expression levels of proteins from the claudin family, in the homogenate of the small intestine membrane, were evaluated by western blotting. […] The signals were visualized by luminescence imaging (Fujifilm Luminescent Image Analyzer LAS4000 System, Tokyo, Japan). The intensity of each signal was corrected using the values obtained from the β-actin bands, and the relative protein intensity was expressed as the fold change compared to the relative protein intensity in the normal group.

Assay [2] relates to Caco-2 cell monolayers. Briefly: Transepithelial electrical resistance (TEER) of Caco-2 cell monolayers. It is filed as cell-based, Human. The method, then: Caco-2 cells (passage 45) were cultured in 175-cm^2 culture flask (Thermo Fisher Scientific™, Waltham, MA, USA). The culture medium consisted of DMEM containing 10% FBS, 0.1 mM MEM–NEAA, 2 mM glutamine, 100 U/mL penicillin, and 100 µg/mL streptomycin [30]. Cells were cultured in a humidified atmosphere of 5% CO2 at 37 °C. The culture medium was changed every two days. When the cultured Caco-2 cells became sub-confluent, they were seeded onto 12-mm Transwell® with 0.4-µm pore polycarbonate membrane inserts (Corning Inc., New York, NY, USA) at a density of 1 × 10^5 cells/insert. The transepithelial transport studies were performed when the transepithelial electrical resistance (TEER) values were more than 500 Ω·cm^2 (i.e., after 21 days). Briefly, after removing the incubation medium by aspiration, the apical and basal sides were washed thrice by Hank’s Balanced Salt (HBSS) solution (pH 7.4). The cells were incubated in HBSS (pH 6.0) for the apical side and HBSS (pH 7.4) for the basal side for 20 min at 37 °C. HBSS supplemented with 1 mg/mL glucose was used in all cell culture experiments. After removing the washing solution by aspiration, 500 µL of 10 µM CF in a HBSS (pH 6.0) solution with or without various concentrations (0.001% v/v, 0.01% v/v, 0.025% v/v, 0.05% v/v, and 0.1% v/v) of SLG-30, 0.1% (w/v) and 1% (w/v) NaGC or 0.05% (w/v) sodium laurate were added to the apical side at zero time, whereas precisely 1500 µL of HBSS (pH 7.4) was added to the basal side at 37 °C. The cells were kept at 37 °C and 5% CO2 and were continuously agitated on a shaker during the transport experiments.
The TEER values were measured by Millicell® (ERS-2 Volt-Ohm Meter, Billerica, MA, USA) at the predetermined times up to 24 h, and the initial values were considered as 100%. The samples from the basal side were withdrawn at predetermined time points up to 24 h. The samples were replaced with an equal volume of HBSS (pH 7.4). CF was determined as previously mentioned. The apparent permeability coefficients Papp (cm/s) for the transported CF was determined by the following equation: Papp=dXR/dt×1/A×1/C0 where Papp is the apparent permeability coefficient in centimeters per second, XR is the amount of CF in moles in the receptor side, dXR/dt is the flux across the monolayer, A is the diffusion area (i.e., in square centimeters), and C0 is the initial concentration of CF in the donor side in moles per milliliter.

Consider `CCCCCCCCCCCC(=O)NC(CCC(=O)NCCCCC(NC(=O)CCC(NC(=O)CCCCCCCCCCC)C(=O)O)C(=O)O)C(=O)O` (stereo not shown) [SLG-30, sodium dilauramidoglutamide lysine], for which, in assay [1], the “decrease of the intensity of the claudin-1 band” value is listed as 57%. Besides, in assay [2] (SLG-30 at all concentrations 0.001-0.1% (v/v), first hour), the TEER values result is “significant decrease”. Moreover, the TEER recovery entry is “did not recover to the baseline” in assay [2] (higher concentrations of SLG-30, without removing SLG-30, up to 24 h) and “started to recover” in assay [2] (lower concentrations of SLG-30, without removing SLG-30, up to 24 h).
